Source: patent US11207277B2, “Methods of treating diseases associated with high-fat diet and vitamin a deficiency using retinoic acid receptor agonists” (Cornell University, priority 2013, dated 2021)
Entries after “also recorded” stand apart in the source; their conditions may differ.

What was measured:
[1] = system: MCP-1; experiment: Semi-quantitative PCR liver, MCP-1; format: in vivo; conditions: HF diet mice + AC261066 or CD1530
Excerpt: (§1) WT male C57/BL6 male mice were maintained on either a standard laboratory chow-fed diet (CFD) with 13% kcal fat, (diet #5053, Lab Diet, Inc, St. Louis, Mo.) or a high fat, western style diet (HFD) with 60% kcals from fat, (diet #58126, Lab Diet, Inc., St. Louis, Mo.) for 4 months. One month after the start of the high fat diet treatment, the high fat diet group was further split into 2 groups for 3 months: i) high fat diet and the drinking water containing 1% DMSO; ii) high fat diet and the drinking water containing 1.5 mg/100 ml AC261066, a specific RARβ agonist. Then mice were sacrificed by cervical dislocation. Blood and various tissue samples were harvested.
(§2) Total RNA was extracted from mouse tissues using TRIzol reagent (Life technologies) and (1 μg) was used to synthesize cDNA. cDNA synthesis was performed at 42° C. for 1 h in a final volume of 20 μl using qScript (Quanta, MD). Semi-quantitative PCR were performed Taq DNA polymerase (Invitrogen, CA). Three step PCR was run as follows: 94° C. for 30 s, 58-64° C. for 45 s for primer annealing and 72° C. for 1 min for primer extension. The number of cycles for each primer pair for amplification in the linear range was determined experimentally. PCR products were resolved 2% agarose gels and visualized by staining with ehtidium bromide. Primers for gene expression used were as follows: […]

[2] = system: hepatic lipids; experiment: Oil red O staining of liver sections; format: in vivo; conditions: HF diet mice + AC261066 or CD1530; vs HF-vehicle
Excerpt: as §1
Staining. Fresh mouse liver samples were embedded in optimal cutting temperature (OCT) medium and immediately frozen to −70 centigrade. Cryosections were then fixed in 4% formaldehyde for 1 hr at room temp. Slides were then rinsed three times in deionized water (dH2O) for 30 s, followed by treatment with 0.5% Triton X-100 in PBS for 5 min. Sections were then washed three times with PBS for 5 min. Samples were with incubated 2% bovine serum albumin (BSA) for 30 min at room temperature to block for unspecific antibody binding. Following blocking, sections were washed three times in PBS and incubated with mouse monoclonal antibody against α-SMA (1:500) (Dako, Inc) for 24 h at 4° C. […]

[3] = system: retinyl palmitate and retinol; experiment: HPLC analysis of liver retinoids; format: in vivo, mice
Excerpt: as §1
The frozen liver tissue samples (˜100 mg) were homogenized in 500 μl cold phosphate-buffered saline (PBS). In addition, 100 μl serum was diluted in cold PBS to total volume of 500 μl. Retinyl acetate was added to each sample before the retinoid extraction for the calculation of extraction efficiency. The retinoids were extracted into 350 μl of organic solution (acetonitrile/butanol, 50:50, v/v) in the dark. The high performance liquid chromatography (HPLC) was performed using a Waters Millennium system (Waters). Each sample (100 μl of the 350 μl) was loaded onto an analytical 5-μm reverse phase C18 column (Vydac, Hesperia, Calif.) and eluted at a flow rate of 1.5 ml/min. Two mobile phase gradient systems were used. Retinoids were identified by HPLC based on two criteria: an exact match of the retention times of unknown peaks with those of authentic retinoid standards and identical UV light spectra (220-400 nm) of unknowns against spectra from authentic retinoid standards during HPLC by the use of a photodiode array detector. The amounts of retinoids were calculated from the areas under the peaks detected at the wave-length of 325 nm. The levels of retinol and retinyl esters were normalized to the tissue weight.

[4] = system: renal lipid accumulation; experiment: Hematoxylin and eosin staining of kidney sections; format: in vivo; conditions: HF diet mice + AC261066 or CD1530; vs HF-vehicle
Excerpt: as §1
At sacrifice, fresh mouse liver samples were fixed in 4% formaldehyde solution for 24 hr and embedded in paraffin blocks. Kidney paraffin sections were cut 5 microns thick and mounted on glass slides and stained with hematoxylin and eosin (H and E) using standard protocols.

[5] = system: α-SMA; experiment: α-SMA immunofluorescence of liver sections (hepatic stellate cell activation); format: in vivo; conditions: HF diet mice + AC261066 or CD1530; vs HF-vehicle
Excerpt: as §1
Staining. Fresh mouse liver samples were embedded in optimal cutting temperature (OCT) medium and immediately frozen to −70 centigrade. Cryosections were then fixed in 4% formaldehyde for 1 hr at room temp. Slides were then rinsed three times in deionized water (dH2O) for 30 s, followed by treatment with 0.5% Triton X-100 in PBS for 5 min. Sections were then washed three times with PBS for 5 min. Samples were with incubated 2% bovine serum albumin (BSA) for 30 min at room temperature to block for unspecific antibody binding. Following blocking, sections were washed three times in PBS and incubated with mouse monoclonal antibody against α-SMA (1:500) (Dako, Inc) for 24 h at 4° C. After 24 h sections were washed three times in PB and incubated with Alexa-Flour-488 anti-mouse secondary anti-body (1:500) (Invitrogen, Inc) for 30 min at room temperature. Sections were then washed three times in PBS and incubated with working strength oil-red O solution for 30 minutes at room temperature. Sections were then rinsed for 30 minutes under running tap water and cover-slipped with Vectashield hard mount plus DAPI (Vector Labs, Inc).

[6] = system: hepatocyte lipid accumulation; experiment: Hematoxylin and eosin staining of liver sections (hepatic steatosis); format: in vivo; conditions: HF diet mice 4 months + AC261066 or CD1530; vs HF-vehicle
Excerpt: as §1
At sacrifice, fresh mouse liver samples were fixed in 4% formaldehyde solution for 24 hr and embedded in paraffin blocks. Liver paraffin sections were cut 5 microns thick and mounted on glass slides and stained with hematoxylin and eosin (H and E) using standard protocols.

[7] = system: TNF-α; experiment: Semi-quantitative PCR liver, TNF-α; format: in vivo; conditions: HF diet mice + AC261066 or CD1530
Excerpt: as §1, §2

[8] = system: SREBP1-c; experiment: Semi-quantitative PCR liver, SREBP1-c; format: in vivo; conditions: HF diet mice + AC261066 or CD1530
Excerpt: as §1, §2

[9] = system: RARβ; experiment: RT-PCR of RARβ in RA-treated ES cells; format: cell-based, mouse; conditions: WT ES cells, presence of RA vs untreated
Procedure: (§3) Mouse J1 wild-type FS cells were cultured as described previously (27). C57BL/6 RARβ heterozygous mice were provided by Dr. Pierre Chambon (Strasbourg-Cedex, France) (26). Homozygous RARβ-null mice were obtained following mating of RARβ heterozygous mice. Blastocysts were harvested on day E3.5 and individually cultured on ES cell medium as previously described (28). Various markers for endodermal (day 5), pancreatic progenitor (day 11), endocrine progenitor (day 14) and endocrine (day 17) differentiation were analyzed by semi-quantitative RT-PCR in J1 wild-type and RARβ KO ESCs. Primers were designed around introns whenever possible. Total RNA extraction, semi-quantitative and quantitative PCR reactions were performed as previously described (18). Amplified PCR products were resolved on 1.5% agarose gels and visualized by staining with ethidium bromide. PCR bands were sequenced for verification of the correct amplicon. Quantitation of semi-quantitative gels was performed using ImageJ software (National Institutes of Health) from three experimental biological repeats.

[10] = system: Cyp26a1; experiment: RT-PCR of Cyp26a1 in RA-treated WT and RARβ KO ES cells; format: cell-based, mouse
Procedure: as §3

[11] = HF diet mice + AC261066 or CD1530 vs controls

O=C(O)c1ccc(-c2ccc3cc(O)c(C45CC6CC(CC(C6)C4)C5)cc3c2)cc1 [CD1530]
mRNA levels of MCP-1 in liver [1]: markedly elevated | hepatic lipid accumulation (oil red O) [2]: not observed; also recorded: no evidence decreased lipid accumulation | liver retinol compared to controls [3, 11]: significantly lowered | liver retinyl palmitate compared to controls [3, 11]: significantly lowered | retinyl palmitate levels in the liver lower than HF-vehicle treated mice ([3]; HF diet mice + CD1530): ~48% | renal lipid infiltration/accumulation (H and E) [4]: no decrease in renal lipid accumulation | α-SMA positive staining in liver (HSC activation) [5]: no evidence decreased lipid accumulation or α-SMA expression intensity or patterns | hepatocyte lipid infiltration / hepatic steatosis (H and E) [6]: no decrease in hepatic lipid accumulation | mRNA levels of TNF-α in liver [7]: markedly elevated | mRNA levels of SREBP1-c in liver [8]: markedly higher

CC1=C(/C=C/C(C)=C/C=C/C(C)=C/C(=O)O)C(C)(C)CCC1 [RA, all trans-retinoic acid]
RARβ transcript signal [9]: stronger RARβ signal | Cyp26a1 expression [10]: RA-dependent Cyp26a1 expression was observed in both WT and RARβ KO ES cells
